These results are taken from patent US20100144815A1, “AMINO ACID COMPOSITION” (priority 2007, published 2010).

Assay [1] concerns Mouse fibroblasts (3T3-L1 cells). Description: Fatty acid releasing activity in mouse fibroblasts differentiated to adipocytes (NEFA-C Test Wako). Format: cell-based. As to conditions: 1 μM in PBS, 4 hours; triplicate; control 0.024. As for the experimental part: The induction of differentiation from mouse fibroblasts (3T3-L1 cells) to adipocytes was carried out in 12-well multiwell plates according to a known procedure. After treatment over about 2 weeks to induce differentiation to adipocytes, it was confirmed under a microscope that large differences in the differentiation induction activity were not present among these wells.
[…] After 4 hours, 5 μL of the PBS solution was picked up and was transferred to a 96-well multiwell plate. The amount of free-fatty acid was measured on the 96-well multiwell plate by using a NEFA-C Test Wako which is for measuring free-fatty acid.
The principle of measuring the amount of free-fatty acid is as follows. AcylCoA is produced by the reaction between acylCoA synthetase (ACS) and free-fatty acid. The reaction of acylCoA oxidase (ACOD) with the produced acylCoA generates hydrogen peroxide, and in the presence of this hydrogen peroxide, oxidative condensation between 3-methyl-N-ethyl-N-(β-hydroxyethyl)aniline (MEHA) and 4-aminoantipyrine was done, and thereby a blue-purple dye was produced. The amount of free fatty acid can be detected by measurement Of the optimal absorbance of this blue-purple dye. A large quantity of free fatty acid indicates a high level of lipolysis and an inhibition of intracellular fat accumulation […].

Assay [2] has as its system athletes of sports which need endurance. The assay is described as follows: Endurance exercise test in athletes after beverage ingestion (stationary bicycle, crossover). Type of assay: in vivo, human. As for the experimental part: The object of these experiments was 12 athletes (6 males, 6 females) of sports which need endurance (for example, cycling, rowing, or triathlon). The following (a)-(c) were evaluated for a beverage containing the amino acid composition of the present invention, water, and flavor (Example 1), a beverage containing glucose, water, and flavor (Comparative Example 1), and a beverage containing water and flavor (Comparative Example 2): (a) work done during full exercise, (b) total amount of fat oxidation during steady-state submaximal exercise, (c) changes of plasma glucagon concentration and free-fatty acid, and (d) change of blood lactate concentration.
The test used a 3-way double-blind crossover design. The 12 athletes were divided into 6 groups. Each of the groups, which contains 2 athletes, is used in each of the following six kinds of experimental sequential procedures with 3 kinds of beverages (i.e. Example 1 and Comparative Examples 1 and 2).
In FIG. 1, the time, when the fasting was finished, was designated as the base time (i.e. time 0). A prescribed diet and limited exercise had been done during the period from 24 hours before the base time to 12 hours before the base time; fasting was carried out in the period of from 12 hours before the base time to time 0; and the beverage (i.e. Example 1, Comparative Example 1, or Comparative Example 2) was orally ingested at 30 minutes after the finish of the fasting. After the lapse of 30 minutes after ingesting the beverage (designated as the “sample” in FIG. 1), exercise with a stationary training bicycle was performed for 85 minutes at a work load equivalent to 65% of the maximum oxygen intake (referred to below as steady-state submaximal exercise), and, after finishing steady-state submaximal exercise, as much work as possible was completed in 5 minutes on the stationary training bicycle.

The subject of assay [3] is Mouse fibroblasts (3T3-L1 cells). The assay is described as follows: Inhibition of differentiation of mouse fibroblasts into adipocytes, measured as GPDH activity. Type of assay: cell-based. As to conditions: 10 μM in D-MEM medium; control without addition 370 units. On the procedure: Experiments were carried out for investigating whether the amino acid composition of the present invention is active in inhibiting the intracellular accumulation of fat granules (specifically, the ability to inhibit the induction of the differentiation of preadipocytes).
Mouse fibroblasts (3T3-LI cells) efficiently differentiate into adipocytes in the presence of dexamethasone (DEX), isobutylmethylxanthine (IBMX), and insulin. It is known that the addition of “Wortmannin”, which is a substance that inhibits the induction of differentiation to adipocytes, inhibits differentiation into adipocytes. This inhibitory effect can be evaluated by measuring the GPDH activity.
The GPDH activity is quantitated in terms of units where 1 unit equals 1 nmol of NADH which is oxidized for one minute in 1 mL of the culture medium for inducing the differentiation of mouse fibroblasts (3T3-LI cells) into adipocytes. A smaller value of units indicates a greater inhibitory effect on differentiation and a greater inhibition of intracellular fat granule accumulation.
The culture medium was obtained by dissolving the same amino acid composition of the present invention as that in Example 1 into D-MEM medium (i.e. serum-containing liquid medium) to provide a concentration of 1 mass %. Almost of the all amount of the amino acid composition was dissolved well by ultrasonication. […]

Regarding `CC(C)NCC(O)c1ccc(O)c(O)c1` (racemic) [Comparative Example 9, dl-isoproterenol], the “average value of absorbance (amount of free-fatty acid)” value in assay [1] was found to be 0.041.

For `O=C[C@H](O)[C@@H](O)[C@H](O)[C@H](O)CO` [Comparative Example 1, glucose], the “amount of work during the 5 minutes of full exercise (average value of the 12 participants)” value in assay [2] (380 g beverage (6 g active) orally 30 min before 85 min steady-state submaximal exercise, then 5 min full exercise) was 83.3 kJ. Besides, the “total amount of fat oxidation during 85-minute steady-state submaximal exercise” value in assay [2] (beverage orally 30 min before exercise at 65% of maximum oxygen intake) is 49.3 g. Also, the “concentration of lactic acid after 5-minute full exercise” value in assay [2] (blood, after full exercise) was 8.8 mmol/L. Further, in assay [2] (blood, before full exercise), the “concentration of lactic acid immediately before full exercise (after the sustained exercise period)” value is given as 1.5 mmol/L.

`COC[C@H]1OC(=O)c2coc3c2[C@@]1(C)C1=C(C3=O)[C@@H]2CCC(=O)[C@@]2(C)C[C@H]1OC(C)=O` [Comparative Example 4, Wortmannin]: in assay [3], the GPDH activity was found to be 47 units.
